Measured values from the Kinase Knowledgebase extract (Sharma et al. 2016).

Molecular target: MAPK14 (human) (UniProt Q16539)
Test: Inhibition of MAPK14 Kinase Activtiy

Chain of MAPK14 (human) (Q16539 whole entry, looked up): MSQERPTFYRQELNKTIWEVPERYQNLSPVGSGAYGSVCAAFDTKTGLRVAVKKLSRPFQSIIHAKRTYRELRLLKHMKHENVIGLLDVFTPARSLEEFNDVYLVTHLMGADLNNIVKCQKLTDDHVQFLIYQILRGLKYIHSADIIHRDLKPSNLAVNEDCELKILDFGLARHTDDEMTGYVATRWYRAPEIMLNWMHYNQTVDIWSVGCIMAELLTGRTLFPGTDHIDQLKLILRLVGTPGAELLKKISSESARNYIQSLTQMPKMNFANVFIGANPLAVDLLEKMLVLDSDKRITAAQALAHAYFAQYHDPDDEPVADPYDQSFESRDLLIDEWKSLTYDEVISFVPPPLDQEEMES

SMILES | IC50
CC(C)C[C@H](NCCCOc1cc(-c2ccc(F)cc2Cl)c2ccc(=O)n(-c3c(F)cccc3F)c2c1)C(=O)O | < 100 nM
CC(C)C[C@H](NCCCOc1cc(-c2ccc(F)cc2Cl)c2ccc(=O)n(-c3c(Cl)cccc3Cl)c2c1)C(=O)OC1CCN(C)CC1 | < 100 nM
CC(C)(C)OC[C@H](NCCCOc1cc(-c2ccc(F)cc2Cl)c2ccc(=O)n(-c3c(Cl)cccc3Cl)c2c1)C(=O)O | < 100 nM
CC(C)C[C@H](NCCCOc1cc(-c2ccc(F)cc2Cl)c2ccc(=O)n(-c3c(Cl)cccc3Cl)c2c1)C(=O)OC1CCCC1 | < 100 nM
CC(C)(C)[C@H](NCCCOc1cc(-c2ccc(F)cc2Cl)c2ccc(=O)n(-c3c(Cl)cccc3Cl)c2c1)C(=O)O | < 100 nM
O=C(O)[C@@H](NCCCOc1cc(-c2ccc(F)cc2Cl)c2ccc(=O)n(-c3c(F)cccc3F)c2c1)C1CCCCC1 | < 100 nM
CC(C)C[C@H](NCCCOc1cc(-c2ccc(F)cc2Cl)c2ccc(=O)n(-c3c(Cl)cccc3Cl)c2c1)C(=O)OC(C)C | < 100 nM
O=C(O)[C@@H](NCCCOc1cc(-c2ccc(F)cc2Cl)c2ccc(=O)n(-c3c(Cl)cccc3Cl)c2c1)c1ccccc1 | < 100 nM
CC(C)C[C@H](NCCCCCOc1cc(-c2ccc(F)cc2Cl)c2ccc(=O)n(-c3c(Cl)cccc3Cl)c2c1)C(=O)O | < 100 nM
CC(C)C[C@H](NC[C@@H](O)COc1cc(-c2ccc(F)cc2Cl)c2ccc(=O)n(-c3c(F)cccc3F)c2c1)C(=O)O | < 100 nM
CC(C)C[C@H](NC[C@H](O)COc1cc(-c2ccc(F)cc2Cl)c2ccc(=O)n(-c3c(F)cccc3F)c2c1)C(=O)O | < 100 nM
O=C(O)[C@@H](NCCCOc1cc(-c2ccc(F)cc2Cl)c2ccc(=O)n(-c3c(F)cccc3F)c2c1)c1ccccc1 | < 100 nM
O=C(O)[C@@H](NCCCOc1cc(-c2ccc(F)cc2Cl)c2ccc(=O)n(-c3c(Cl)cccc3Cl)c2c1)C1CCCCC1 | < 100 nM
CC(C)(C)OC[C@H](NCCCOc1cc(-c2ccc(F)cc2Cl)c2ccc(=O)n(-c3c(Cl)cccc3Cl)c2c1)C(=O)OC1CCCC1 | < 100 nM
CC(C)C[C@H](NCCCOc1cc(-c2ccc(F)cc2Cl)c2ccc(=O)n(-c3c(Cl)cccc3Cl)c2c1)C(=O)O | < 100 nM
CC(C)C[C@H](NC1CCC(c2cc(-c3ccc(F)cc3Cl)c3c(c2)N(c2c(Cl)cccc2Cl)C(=O)CC3)CC1)C(=O)O (stereo not given in full) | < 100 nM
CC(C)C[C@H](NCCCOc1cc(-c2ccc(F)cc2F)c2ccc(=O)n(-c3c(F)cccc3F)c2c1)C(=O)O | < 100 nM
CC(C)C[C@H](NCCc1cc(-c2ccc(F)cc2Cl)c2ccc(=O)n(-c3c(F)cccc3F)c2c1)C(=O)O | < 100 nM
CC(C)C[C@H](NCCCOc1cc(-c2ccc(F)cc2Cl)c2ccc(=O)n(-c3ccccc3)c2c1)C(=O)O | < 100 nM
CC(C)C[C@H](NCCc1cc(-c2ccc(F)cc2Cl)c2ccc(=O)n(-c3c(Cl)cccc3Cl)c2c1)C(=O)O | < 100 nM
